The values below come from patent US20260250325A1, “Antiviral Polypeptide Membrane Fusion Inhibitor, and Preparation Method and Application Thereof” (priority 2025, published 2026).

In one experiment the test system is hMPV A2. In kind it is cell-based. The note with it: Vero cells, plaque reduction. Here is the method: (§1) African green monkey kidney cells (Vero) were sourced from the ATCC, with catalog number CCL-81. The cells were cultured in a DMEM culture solution in which 10% fetal bovine serum, 1% non-essential amino acids, 1% sodium pyruvate, 1% L-glutamine, 100 U/ml penicillin, and 100 μg/ml streptomycin were added.
(§2) A hMPV plaque experiment culture medium consisted of an Opti-MEM culture solution added with 1% non-essential amino acids, 100 U/mL penicillin, and 100 μg/mL streptomycin.
(§3) hMPV virus strains A2 and B1 were constructed by WuXi App Tec.
(§4) This study used a plaque reduction experiment to detect the in-vitro activity of a test sample against the hMPV virus strains A2 and B1.
(§5) The test sample and an experimental system were tested at 8 concentrations in duplicated wells. The Vero cells were digested with trypsin and then diluted to a concentration of 400,000 cells per milliliter by using a cell culture solution containing 2% serum. The diluted cells were added to a 96-well cell test board, with 100 μL per well, corresponding to 40000 cells per well. The cells were cultured overnight in a 37° C. incubator with 5% CO2.
(§6) On the second day, the test sample was diluted in an experimental culture medium at a fold ratio. The sample diluted at a fold ratio and an equal volume of virus (approximately 200 PFU per well) were well mixed and incubated at 33° C. in 5% CO2 for 1 h. Then, the culture solution in the 96-well cell test board was discarded, the sample virus mixed solution (100 μL) was added to the 96-well cell culture plate, and incubated at 37° C. in 5% CO2 for 2 hours. After 2 h, the sample virus mixed solution was discarded, 200 μL of an experiment culture medium containing the test sample with a corresponding concentration was added, and the culture solution contained 0.8% CMC and 5 μg/ml trypsin. A final concentration of DMSO in the culture solution was 0.5%. A system control antibody was directly added to the experiment culture solution containing 0.8% CMC and 5 μg/ml trypsin. A cell control (cells, without compound treatment or viral infection) and a viral control (cell infection virus, without compound treatment) were set. The cells were cultured for 1 day in the 33° C. incubator with 5% CO2.
(§7) The cells were fixed with 4% paraformaldehyde, and then permeabilization was performed with 0.5% Triton X-100. After the plate was washed with DPBS, a hMPV specific antibody (1:2000 dilution) was added and incubated at 37° C. for 1.5 h. Then, a secondary antibody (1:1000 dilution) was added and incubated at 37° C. for 1 hour. The secondary antibody was discarded, a TrueBlue solution was added, dyeing was performed for approximately 10 minutes; and the plate was washed with running water and then air-dried, and the number of spots in each well was counted by using a microplate imaging counter.
(§8) Raw data was used for analyzing the antiviral activity of the test samples. A calculation formula was shown as follows.
(§9) % inhibition rate=100−(sample value-cell control average value)/(virus control average value-cell control average value)×100
(§10) Non-linear fitting analysis was performed on the inhibition rate of the sample by using GraphPad Prism (version 10), so as to calculate an EC50 value for the sample. A fitting formula was log (inhibitor) vs. response-Variable slope (four parameters).

A further experiment concerns hMPV B1. The format is cell-based. The following applies: Vero cells, plaque reduction. Here is the method: as §1, §2, §3, §4, §5, §6, §7, §8, §9, §10
The subject of the next experiment is hPIV3 C243 virus strain. In kind it is cell-based, hPIV. The note with it: LLC-MK2 cells, hPIV3 C243, plaque reduction; read-out: EC50 against hPIV3 virus. The procedure: Rhesus monkey kidney cells (LLC-MK2) were sourced from the ATCC, with a catalog number CCL-7.1. The cells were cultured in a DMEM culture solution in which 10% fetal bovine serum, 1% non-essential amino acids, 1% sodium pyruvate, 1% L-glutamine, 100 U/ml penicillin, and 100 μg/ml streptomycin were added.
An HPIV-3 plaque experiment culture medium consisted of a DMEM culture solution added with 2% fetal bovine serum, 1% non-essential amino acids, 1% sodium pyruvate, 1% L-glutamine, 100 U/ml penicillin, and 100 μg/ml streptomycin.
The hPIV Type 3 (hPIV3 C243) was sourced from the ATCC, with a catalog number VR-93.
This study used the plaque reduction experiment to detect the in-vitro activity of the test sample against the hPIV3 C243 virus strain, and Human Anti-HPIV3 Monoclonal Antibody, clone PIA174 was an experimental system control. The test sample and a system experimental antibody were tested at 8 concentrations in duplicated wells.
The LLC-MK2 cells were digested with trypsin and then diluted to a concentration of 400,000 cells per milliliter by using a cell culture solution containing 2% serum. The diluted cells were added to a 96-well cell test board, with 100 μL per well, corresponding to 40,000 cells per well. The cells were cultured overnight in a 37° C. incubator with 5% CO2.
as §6, with “next” for “second”, “the” for “the test sample was diluted in an experimental culture medium at a fold ratio. The”, “37°” for “33°”, “hour.” for “h.”, “CMC.” for “CMC and 5 μg/ml trypsin.”, “A” for “A system”
The cells were fixed with 4% paraformaldehyde, and then permeabilization was performed with 0.5% Triton X-100. After the plate was washed with DPBS, a hPIV specific antibody (1:2000 dilution) was added and incubated at 37° C. for 1.5 h. Then, a secondary antibody (1:500 dilution) was added and incubated at 37° C. for 1 hour. The secondary antibody was discarded, a TrueBlue solution was added, dyeing was performed for approximately 10 minutes; and the plate was washed with running water and then air-dried, and the number of spots in each well was counted by using a microplate imaging counter.
Raw data was used for calculating the antiviral activity of the samples, and a calculation formula was shown as follows.
as §9, §10

Where a SMILES comes first, the peptide text is derived from it. The star is where a group is joined. Succinyl(4-O-cholesteryl) = CC(C)CCC[C@@H](C)[C@H]1CC[C@H]2[C@@H]3CC=C4C[C@@H](OC(=O)CCC(=O)*)CC[C@]4(C)[C@H]3CC[C@]12C

The EC50 is the concentration giving half of the maximal effect. As to `CC[C@H](C)[C@H](NC(=O)[C@H](CCCCN)NC(=O)[C@H](CCCCN)NC(=O)[C@H](CC(C)C)NC(=O)[C@H](CO)NC(=O)[C@H](CCC(=O)O)NC(=O)[C@H](CCC(=O)O)NC(=O)[C@@H](NC(=O)[C@H](CCCCN)NC(=O)[C@H](CCCCN)NC(=O)[C@H](CC(N)=O)NC(=O)[C@@H](NC(=O)[C@H](CCC(=O)O)NC(=O)[C@H](CCC(=O)O)NC(=O)[C@@H](NC(=O)[C@H](CCCCN)NC(=O)[C@H](CCCCN)NC(=O)[C@H](CC(=O)O)NC(=O)[C@H](Cc1ccccc1)NC(=O)[C@H](CCC(=O)O)NC(=O)[C@H](CC(=O)O)NC(=O)[C@H](Cc1c[nH]c2ccccc12)NC(C)=O)[C@@H](C)CC)C(C)C)[C@@H](C)CC)C(=O)N[C@@H](CCC(=O)O)C(=O)N[C@@H](CCC(=O)O)C(=O)N[C@@H](CO)C(=O)N[C@@H](CC(=O)O)C(=O)N[C@@H](CCCCN)C(=O)N[C@@H](CCCCN)C(=O)N[C@@H](CC(C)C)C(=O)N[C@@H](CCC(=O)O)C(=O)N[C@@H](CCC(=O)O)C(=O)N[C@H](C(=O)N[C@@H](CC(N)=O)C(=O)N[C@@H](C)C(=O)N[C@@H](CCC(=O)O)C(=O)N[C@@H](C)C(=O)N[C@@H](C)C(=O)N[C@@H](C)C(=O)N[C@@H](CCCCN)C(=O)N[C@@H](CCCCNC(=O)CCC(=O)O[C@H]1CC[C@@]2(C)C(=CC[C@H]3[C@@H]4CC[C@H]([C@H](C)CCCC(C)C)[C@@]4(C)CC[C@@H]32)C1)C(N)=O)C(C)C` [Compound 40] (Ac-WDEFDKKIEEVNKKIEESLKKIEESDKKLEEVNAEAAAKK(Succinyl(4-O-cholesteryl))-NH2), the EC50 was determined as 0.0138 µM in the experiment with hMPV A2, 0.00747 µM in the experiment with hMPV B1 and 0.0222 µM in the experiment with hPIV3 C243 virus strain.

Consider `CC[C@H](C)[C@H](NC(=O)[C@H](CCCCN)NC(=O)[C@H](CCCCN)NC(=O)[C@H](CC(C)C)NC(=O)[C@H](CO)NC(=O)[C@H](CCC(=O)O)NC(=O)[C@H](CCC(=O)O)NC(=O)[C@@H](NC(=O)[C@H](CCCCN)NC(=O)[C@H](CCCCN)NC(=O)[C@H](CC(N)=O)NC(=O)[C@@H](NC(=O)[C@H](CCC(=O)O)NC(=O)[C@H](CCC(=O)O)NC(=O)[C@@H](NC(=O)[C@H](CCCCN)NC(=O)[C@H](CCCCN)NC(=O)[C@H](CC(=O)O)NC(=O)[C@H](Cc1ccccc1)NC(=O)[C@H](CCC(=O)O)NC(=O)[C@H](CC(=O)O)NC(=O)[C@H](Cc1c[nH]c2ccccc12)NC(C)=O)[C@@H](C)CC)C(C)C)[C@@H](C)CC)C(=O)N[C@@H](CCC(=O)O)C(=O)N[C@@H](CCC(=O)O)C(=O)N[C@@H](CO)C(=O)N[C@@H](CC(=O)O)C(=O)N[C@@H](CCCCN)C(=O)N[C@@H](CCCCN)C(=O)N[C@@H](CC(C)C)C(=O)N[C@@H](CCC(=O)O)C(=O)N[C@@H](CCC(=O)O)C(=O)N[C@H](C(=O)N[C@@H](CC(N)=O)C(=O)N[C@@H](CCC(=O)O)C(=O)N[C@@H](C)C(=O)N[C@@H](C)C(=O)N[C@@H](C)C(=O)N[C@@H](CCCCN)C(=O)N[C@@H](CCCCNC(=O)CCC(=O)O[C@H]1CC[C@@]2(C)C(=CC[C@H]3[C@@H]4CC[C@H]([C@H](C)CCCC(C)C)[C@@]4(C)CC[C@@H]32)C1)C(N)=O)C(C)C` [Compound 41] (Ac-WDEFDKKIEEVNKKIEESLKKIEESDKKLEEVNEAAAKK(Succinyl(4-O-cholesteryl))-NH2), for which the results for the half-maximal effective concentration (EC50) in the experiment with hMPV A2, in the experiment with hMPV B1 and in the experiment on hPIV3 C243 virus strain were 0.0117 µM, 0.00946 µM and 0.0711 µM, respectively.

As to `CC[C@H](C)[C@H](NC(=O)[C@H](CO)NC(=O)[C@H](C)NC(=O)[C@H](CC(=O)O)NC(=O)[C@H](Cc1ccccc1)NC(C)=O)C(=O)N[C@@H](CCC(=O)O)C(=O)N[C@@H](CCC(=O)O)C(=O)N[C@H](C(=O)N[C@@H](CC(N)=O)C(=O)N[C@@H](CCCNC(=N)N)C(=O)N[C@@H](CCCNC(=N)N)C(=O)N[C@H](C(=O)N[C@@H](CCC(=O)O)C(=O)N[C@@H](CCC(=O)O)C(=O)N[C@@H](CO)C(=O)N[C@@H](CC(C)C)C(=O)N[C@@H](CCCNC(=N)N)C(=O)N[C@@H](CCCNC(=N)N)C(=O)N[C@H](C(=O)N[C@@H](CCC(=O)O)C(=O)N[C@@H](CCC(=O)O)C(=O)N[C@@H](CO)C(=O)N[C@@H](CC(=O)O)C(=O)N[C@@H](CCCNC(=N)N)C(=O)N[C@@H](CCCNC(=N)N)C(=O)N[C@@H](CC(C)C)C(=O)N[C@@H](CCC(=O)O)C(=O)N[C@@H](CCC(=O)O)C(=O)N[C@H](C(=O)N[C@@H](CC(N)=O)C(=O)N[C@@H](C)C(=O)N[C@@H](CCC(=O)O)C(=O)N[C@@H](C)C(=O)N[C@@H](C)C(=O)N[C@@H](C)C(=O)N[C@@H](CCCCN)C(=O)N[C@@H](CCCCNC(=O)CCC(=O)O[C@H]1CC[C@@]2(C)C(=CC[C@H]3[C@@H]4CC[C@H]([C@H](C)CCCC(C)C)[C@@]4(C)CC[C@@H]32)C1)C(N)=O)C(C)C)[C@@H](C)CC)[C@@H](C)CC)C(C)C` [Compound 42] (Ac-FDASIEEVNRRIEESLRRIEESDRRLEEVNAEAAAKK(Succinyl(4-O-cholesteryl))-NH2), the figures for the EC50 in the experiment with hMPV A2, with hMPV B1 and in the experiment with hPIV3 C243 virus strain were 0.0261 µM, 0.0101 µM and 0.0189 µM, respectively.
